Tested on: trypsin
Assay: chromogenic trypsin inhibition assay using KABI S2288 substrate
Assay type: biochemical
Conditions: 25 ng trypsin, 410 nm
Method: Trypsin inhibitory activity was determined in a chromogenic assay using KABI S2288 as substrate (HO ILE PRO ARG p-nitroanilide.) Scisson of the ARG-p-nitroanilide bond releases p-nitroaniline which absorbs at 410 nm; thus, the extent of cleavage is measured by the increase in absorbance at 410 nm. This assay was used in qualitative manner to determine the inhibitory activity of LTI and LEP-10. Briefly, serial two fold dilutions of either conditioned medium (CM) or ammonium sulfate concentrates (AS) of conditioned medium were mixed with 25 ng of trypsin and the substrate was added. After 30 min at room temperature, the assay was stopped by addition of acetic acid. The assay was carried out in microtiter plates, which were then read in an ELISA reader. Similar samples of PSN were included as controls. […] The data shown are the absorbances measured following cleavage of the chromogenic substrate by trypsin.

plasminostreptin [PSN]
absorbance following cleavage of the chromogenic substrate by trypsin (ammonium sulfate concentrate (AS), reciprocal dilution 1, 30 min, No Inh. control 0.763 (LTI) / 0.751 (PSN)): 0.018
absorbance following cleavage of the chromogenic substrate by trypsin (ammonium sulfate concentrate (AS), reciprocal dilution 2, 30 min): 0.021
absorbance following cleavage of the chromogenic substrate by trypsin (ammonium sulfate concentrate (AS), reciprocal dilution 4, 30 min): 0.023
absorbance following cleavage of the chromogenic substrate by trypsin (ammonium sulfate concentrate (AS), reciprocal dilution 8, 30 min): 0.024
absorbance following cleavage of the chromogenic substrate by trypsin (ammonium sulfate concentrate (AS), reciprocal dilution 16, 30 min): 0.036
absorbance following cleavage of the chromogenic substrate by trypsin (ammonium sulfate concentrate (AS), reciprocal dilution 32, 30 min): 0.076
absorbance following cleavage of the chromogenic substrate by trypsin (conditioned medium (CM), reciprocal dilution 1, 30 min room temperature, No Inh. control 0.898 (LTI) / 0.772 (PSN)): 0.010
absorbance following cleavage of the chromogenic substrate by trypsin (conditioned medium (CM), reciprocal dilution 2, 30 min): 0.046
absorbance following cleavage of the chromogenic substrate by trypsin (conditioned medium (CM), reciprocal dilution 4, 30 min): 0.046
absorbance following cleavage of the chromogenic substrate by trypsin (conditioned medium (CM), reciprocal dilution 8, 30 min): 0.053
absorbance following cleavage of the chromogenic substrate by trypsin (conditioned medium (CM), reciprocal dilution 16, 30 min): 0.058
absorbance following cleavage of the chromogenic substrate by trypsin (conditioned medium (CM), reciprocal dilution 32, 30 min): 0.273
